Target: T1, long form of human GPR120 (Homo sapiens, UniProt Q5NUL3)
T1 construct: host or cells: PathHunter CHO-K1 GPR120 β-Arrestin Cell Line
Experiment: Human GPR120 DiscoveRx PathHunter Beta-Arrestin assay, Procedure β-arrestin A
Type: cell-based
Summary of the method: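 PathHunter CHO-K1 cells expressing long-form human GPR120 (3000/well) were seeded overnight. They were then preincubated 60 min in HBSS with 20 mM HEPES and 0.1% BSA, pH 7.4, and exposed to compound for 90 min at 37 °C. β-Arrestin recruitment was read as β-gal complementation luminescence. EC50 came from % activity versus positive control, Hill slope fixed at 1.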

T1 sequence (Q5NUL3 1-377 isoform Q5NUL3-1): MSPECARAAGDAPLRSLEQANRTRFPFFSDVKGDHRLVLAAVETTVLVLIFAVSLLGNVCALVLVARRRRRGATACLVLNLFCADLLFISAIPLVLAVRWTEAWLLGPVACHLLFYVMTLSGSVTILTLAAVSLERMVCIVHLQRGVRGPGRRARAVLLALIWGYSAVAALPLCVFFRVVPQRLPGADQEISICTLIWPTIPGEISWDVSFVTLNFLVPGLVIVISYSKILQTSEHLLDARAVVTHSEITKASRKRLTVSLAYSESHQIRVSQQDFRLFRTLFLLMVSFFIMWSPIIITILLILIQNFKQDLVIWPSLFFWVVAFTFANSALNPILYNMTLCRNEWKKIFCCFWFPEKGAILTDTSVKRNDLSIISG
T1 sequence (P32121 whole entry partner): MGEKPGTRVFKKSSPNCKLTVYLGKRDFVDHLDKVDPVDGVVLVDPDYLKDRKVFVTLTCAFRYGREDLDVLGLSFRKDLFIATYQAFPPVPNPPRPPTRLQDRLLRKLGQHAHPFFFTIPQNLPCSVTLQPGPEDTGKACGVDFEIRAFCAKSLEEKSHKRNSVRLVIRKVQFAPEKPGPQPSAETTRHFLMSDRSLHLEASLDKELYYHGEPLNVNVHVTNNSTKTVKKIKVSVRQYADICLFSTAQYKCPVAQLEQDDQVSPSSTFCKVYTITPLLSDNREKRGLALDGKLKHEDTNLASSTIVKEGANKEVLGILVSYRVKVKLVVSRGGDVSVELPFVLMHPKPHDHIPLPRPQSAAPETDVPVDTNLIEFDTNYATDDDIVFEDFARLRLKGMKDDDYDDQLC

| SMILES | EC50 [µM] |
| --- | --- |
| Cc1c(CCC(=O)O)ccc(OCC2=C(c3ccc(Cl)cc3)CC(F)(F)C2)c1C [Compound 137, 3-[4-[[2-(4-chlorophenyl)-4,4-difluoro-cyclopenten-1-yl]methoxy]-2,3-dimethyl-phenyl]Propanoic Acid] | 0.043 |
| Cc1c(CCC(=O)O)ccc(OCC2=C(c3ccc(Cl)cc3)CCC(F)(F)C2)c1C [Compound 468, 3-[4-[[2-(4-chlorophenyl)-5,5-difluoro-cyclohexen-1-yl]methoxy]-2,3-dimethyl-phenyl]Propanoic Acid] | 0.168 |
| Cc1ccc(C2=C(COc3ccc(CCC(=O)O)c(C)c3C)CCC2)cc1F [Compound 80, 3-(4-((2-(3-fluoro-4-methylphenyl)cyclopent-1-en-1-yl)methoxy)-2,3-dimethylphenyl)Propanoic Acid] | 0.073 |
| Cc1c(CCC(=O)O)ccc(OCC2=C(c3ccc(Cl)cc3)CCCC2)c1C [Compound 474, 3-[4-[[2-(4-chlorophenyl)cyclohexen-1-yl]methoxy]-2,3-dimethyl-phenyl]Propanoic Acid] | 0.354 |

From patent US11230526B1, “Cylcoalkenyl derivatives useful as agonists of the GPR120 and/or GPR40 receptors” (Janssen Pharmaceutica NV, priority 2018, dated 2022)
